Source: ChEMBL document CHEMBL6109128, “Copper-KRAS-COX2 Axis: A Therapeutic Vulnerability in Pancreatic Cancer” (J Med Chem, 2025)
Activity calls are given as the source filed them. The calls are words filed in the database; no cut-off is given here.

Tests used:
[1] = system: SU.86.86; assay: Cytotoxicity against human SU-86-86 cells by MTT assay; type: functional, cell-based
[2] = system: HCT-116; assay: Synergistic antiproliferative activity against human HCT-116 cells assessed as inhibition of colony formation at up to 1 uM in presence of CuSO4; type: functional, cell-based
[3] = system: HCT-116; assay: Induction of apoptosis in human HCT-116 cells assessed as increase in clonogenic survival up to 1 uM incubated for 6 days in presence of Z-VAD-FMK by crystal violet staining based analysis; type: functional, cell-based; details: time 6.0 day
[4] = system: HCT-116; assay: Synergistic antiproliferative activity against human HCT-116 cells assessed as inhibition of colony formation at up to 1 uM incubated for 6 days in presence of valdecoxib; type: functional, cell-based; details: time 6.0 day
[5] = system: KPC2; assay: Synergistic antiproliferative activity against mouse KPC2 cells assessed as inhibition of colony formation at up to 1 uM incubated for 6 days in presence of celecoxib; type: functional, cell-based; details: time 6.0 day
[6] = system: Panc02; assay: Cytotoxicity against mouse Panc02 cells harboring wild type KRAS; type: functional, cell-based
[7] = system: BXPC-3; assay: Cytotoxicity against human BXPC-3 cells by MTT assay; type: functional, cell-based
[8] = system: HCT-116; assay: Induction of ferroptosis in human HCT-116 cells assessed as cell death at up to 1 uM in presence of ferrostatin-1; type: functional, cell-based
[9] = system: MIA PaCa-2; assay: Synergistic antiproliferative activity against human MIA PaCa-2 cells assessed as inhibition of colony formation at up to 1 uM in presence of ZnCl2; type: functional, cell-based
[10] = Cmax in CD-1 mouse at 30 mg/kg, po measured up to 24 hrs by LC-MS/MS analysis; type: ADME, organism-based; details: in vivo
[11] = system: BXPC-3; assay: Induction of apoptosis in human BXPC-3 cells assessed as increase in clonogenic survival up to 0.5 uM incubated for 6 days in presence of Z-VAD-FMK by crystal violet staining based analysis; type: functional, cell-based; details: time 6.0 day
[12] = system: BXPC-3; assay: Synergistic antiproliferative activity against human BXPC-3 cells assessed as inhibition of colony formation at up to 1 uM incubated for 6 days in presence of celecoxib; type: functional, cell-based; details: time 6.0 day
[13] = system: MIA PaCa-2; assay: Induction of apoptosis in human MIA PaCa-2 cells assessed as upregulation of caspase 3 level at 10 uM measured for 48 hrs by Western blot analysis; type: functional, cell-based
[14] = system: HCT-116; assay: Synergistic antiproliferative activity against human HCT-116 cells assessed as inhibition of colony formation at up to 1 uM incubated for 6 days in presence of AZD6738; type: functional, cell-based; details: time 6.0 day
[15] = AUC in CD-1 mouse at 30 mg/kg, po measured up to 24 hrs by LC-MS/MS analysis; type: ADME, organism-based; details: in vivo
[16] = system: HCT-116; assay: Cytotoxicity against human HCT-116 cells assessed as cell death up to 1 uM incubated for 6 days in presence of NAC; type: functional, cell-based; details: time 6.0 day
[17] = Metabolic stability in human liver microsome assessed as half life measured up to 60 mins by LC-MS/MS analysis; type: ADME; details: liver microsomes
[18] = system: HCT-116; assay: Synergistic antiproliferative activity against human HCT-116 cells assessed as inhibition of colony formation at up to 1 uM incubated for 6 days in presence of JQ-1; type: functional, cell-based; details: time 6.0 day
[19] = system: PANC-1; assay: Synergistic antiproliferative activity against human PANC-1 cells assessed as inhibition of colony formation at up to 1 uM incubated for 6 days in presence of valdecoxib; type: functional, cell-based; details: time 6.0 day
[20] = system: PANC-1; assay: Antiproliferative activity against human PANC-1 cells assessed as cell death incubated for 6 hrs in presence of NS3694; type: functional, cell-based
[21] = system: MIA PaCa-2; assay: Induction of ferroptosis in human MIA PaCa-2 cells assessed as cell death at up to 1 uM in presence of […]; type: functional, cell-based
[22] = system: HCT-116; assay: Synergistic antiproliferative activity against human HCT-116 cells assessed as inhibition of colony formation at up to 1 uM incubated for 6 days in presence of lumi-racoxib; type: functional, cell-based; details: time 6.0 day
[23] = system: HCT-116; assay: Synergistic antiproliferative activity against human HCT-116 cells assessed as inhibition of colony formation at up to 10 uM in presence of TTM; type: functional, cell-based
[24] = Cmax in CD-1 mouse at 15 mg/kg, iv measured up to 24 hrs by LC-MS/MS analysis; type: ADME, organism-based; details: in vivo
[25] = system: Panc02; assay: Synergistic antiproliferative activity against mouse Panc02 cells assessed as inhibition of colony formation at up to 1 uM incubated for 6 days in presence of celecoxib; type: functional, cell-based; details: time 6.0 day
[26] = Metabolic stability in mouse liver microsome assessed as half life measured up to 60 mins by LC-MS/MS analysis; type: ADME; details: liver microsomes
[27] = system: HCT-116; assay: Induction of apoptosis in human HCT-116 cells assessed as increase in clonogenic survival up to 1 uM incubated for 6 days in presence of necrostatin-1 by crystal violet staining based analysis; type: functional, cell-based; details: time 6.0 day
[28] = system: HCT-116; assay: Induction of apoptosis in human HCT-116 cells assessed as upregulation of cleaved PARP level at 1 uM measured for 24 hrs in presence of CuSO4 by Western blot analysis; type: functional, cell-based
[29] = system: BXPC-3; assay: Cytotoxicity against human BXPC-3 cells harboring wild type KRAS; type: functional, cell-based
[30] = system: MIA PaCa-2; assay: Induction of necroptosis in human MIA PaCa-2 cells assessed as increase in p-RIP3 level at 10 uM incubated for 1 hr by Western blot analysis; type: functional, cell-based
[31] = system: HCT-116; assay: Induction of ferroptosis in human HCT-116 cells at up to 1 uM in presence of FIN56; type: functional, cell-based
[32] = system: MIA PaCa-2; assay: Cytotoxicity against human MIA PaCa-2 cells assessed as cell death up to 1 uM incubated for 6 days in presence of NAC; type: functional, cell-based; details: time 6.0 day
[33] = system: MIA PaCa-2; assay: Cytotoxicity against human MIA PaCa-2 cells by MTT assay; type: functional, cell-based
[34] = system: HCT-116; assay: Synergistic antiproliferative activity against human HCT-116 cells assessed as inhibition of colony formation at up to 1 uM incubated for 6 days in presence of MK-663; type: functional, cell-based; details: time 6.0 day
[35] = system: MIA PaCa-2; assay: Synergistic antiproliferative activity against human MIA PaCa-2 cells assessed as inhibition of colony formation at up to 1 uM in presence of FeCl3; type: functional, cell-based
[36] = system: HCT-116; assay: Synergistic antiproliferative activity against human HCT-116 cells assessed as inhibition of colony formation at up to 1 uM incubated for 6 days in presence of rofecoxib; type: functional, cell-based; details: time 6.0 day
[37] = system: HCT-116; assay: Induction of autophagy in human HCT-116 cells assessed as cell death at up to 1 uM incubated for 6 days in presence of bafilomycin-A1; type: functional, cell-based; details: time 6.0 day
[38] = Cytotoxicity against mouse KPC2 cells by MTT assay; type: functional, cell-based
[39] = system: HCT-116; assay: Synergistic antiproliferative activity against human HCT-116 cells assessed as inhibition of colony formation at up to 1 uM incubated for 6 days in presence of CC-115; type: functional, cell-based; details: time 6.0 day
[40] = Oral bioavailability in CD-1 mouse at 30 mg/kg measured up to 24 hrs by LC-MS/MS analysis; type: ADME, organism-based; details: in vivo
[41] = system: MIA PaCa-2; assay: Synergistic antiproliferative activity against human MIA PaCa-2 cells assessed as inhibition of colony formation at up to 1 uM incubated for 6 days in presence of rotec-oxib; type: functional, cell-based; details: time 6.0 day
[42] = system: HCT-116; assay: Synergistic antiproliferative activity against human HCT-116 cells assessed as inhibition of colony formation at up to 1 uM incubated for 6 days in presence of LY2603618; type: functional, cell-based; details: time 6.0 day
[43] = system: KPC2; assay: Synergistic antiproliferative activity against mouse KPC2 cells at 0.01 to 3 uM in presence of MRTX1133; type: functional, cell-based; details: dose 0.01-3 µM

Q: Which IC50 [1] does the source give for `C[C@@H]1OCC2(CCN(c3cnc(C(=O)Nc4cc(F)cc5cccnc45)cn3)CC2)[C@@H]1N` here?
A: Its IC50 is 800 nM.

Q: And the Activity [2]?
A: Its Activity is “Active”.

Q: And the Activity [3]?
A: Its Activity is “Active”.

Q: What about the Activity [4] of the same molecule?
A: The Activity was “Active”.

Q: What about the Activity [5] of the same molecule?
A: Its Activity is “Active”.

Q: And the Activity [6]?
A: Its Activity is “inactive”.

Q: What about the IC50 [7] of the same molecule?
A: The IC50 was 8500 nM.

Q: And the Activity [8]?
A: The Activity was “inactive”.

Q: And the Activity [9]?
A: The Activity was “Active”.

Q: And the Cmax [10]?
A: Its Cmax is 1020 ng/mL.

Q: What about the Activity [11] of the same molecule?
A: Its Activity is “Active”.

Q: What about the Activity [12] of the same molecule?
A: The Activity was “Active”.

Q: What about the Activity [13] of the same molecule?
A: Its Activity is “Active”.

Q: What about the Activity [14] of the same molecule?
A: The Activity was “Active”.

Q: What about the AUC at 24 h [15] of the same molecule?
A: Its AUC at 24 h is 6640 ng·h/mL.

Q: What about the Activity [16] of the same molecule?
A: The Activity was “Active”.

Q: And the half-life [17]?
A: Its half-life is greater than 1 h.

Q: What about the Activity [18] of the same molecule?
A: The Activity was “Active”.

Q: And the Activity [19]?
A: The Activity was “Active”.

Q: What about the Activity [20] of the same molecule?
A: Its Activity is “Active”.

Q: And the Activity [21]?
A: The Activity was “inactive”.

Q: What about the Activity [22] of the same molecule?
A: Its Activity is “Active”.

Q: What about the Activity [23] of the same molecule?
A: Its Activity is “Active”.

Q: What about the Cmax [24] of the same molecule?
A: Its Cmax is 3460 ng/mL.

Q: What about the Activity [25] of the same molecule?
A: Its Activity is “Active”.

Q: And the half-life [26]?
A: The half-life was greater than 1 h.

Q: What about the Activity [27] of the same molecule?
A: The Activity was “Active”.

Q: And the Activity [28]?
A: Its Activity is “Active”.

Q: And the Activity [29]?
A: Its Activity is “inactive”.

Q: And the Activity [30]?
A: The Activity was “Active”.

Q: And the Activity [31]?
A: The Activity was “Active”.

Q: And the Activity [32]?
A: The Activity was “Active”.

Q: What about the IC50 [33] of the same molecule?
A: Its IC50 is 1900 nM.

Q: And the Activity [34]?
A: The Activity was “Active”.

Q: And the Activity [35]?
A: Its Activity is “Active”.

Q: What about the Activity [36] of the same molecule?
A: The Activity was “Active”.

Q: What about the Activity [37] of the same molecule?
A: The Activity was “Active”.

Q: And the IC50 [38]?
A: Its IC50 is 1900 nM.

Q: What about the Activity [39] of the same molecule?
A: The Activity was “Active”.

Q: And the bioavailability [40]?
A: Its bioavailability is 55.2%.

Q: What about the Activity [41] of the same molecule?
A: The Activity was “Active”.

Q: What about the Activity [42] of the same molecule?
A: The Activity was “Active”.

Q: What about the Activity [43] of the same molecule?
A: The Activity was “Active”.

Q: Which results are given for `N[C@@H]1[C@H]2CN(c3cnc(C(=O)Nc4cc(F)cc5cccnc45)cn3)C[C@@H]12`?
A: IC50 [1]: 1100 nM; Activity [2]: Active; Activity [3]: Active; Activity [4]: Active; Activity [5]: Active; Activity [6]: inactive; IC50 [7]: > 10000 nM; Activity [8]: inactive; Activity [9]: Active; Cmax [10]: 364 ng/mL; Activity [11]: Active; Activity [12]: Active; Activity [13]: Active; Activity [14]: Active; AUC at 24 h [15]: 3780 ng·h/mL; Activity [16]: Active; half-life [17]: > 1 h; Activity [18]: Active; Activity [19]: Active; Activity [20]: Active; Activity [21]: inactive; Activity [22]: Active; Activity [23]: Active; Cmax [24]: 1620 ng/mL; Activity [25]: Active; half-life [26]: > 1 h; Activity [27]: Active; Activity [28]: Active; Activity [29]: inactive; Activity [30]: Active; Activity [31]: Active; Activity [32]: Active; IC50 [33]: 600 nM; Activity [34]: Active; Activity [35]: Active; Activity [36]: Active; Activity [37]: Active; IC50 [38]: 3400 nM; Activity [39]: Active; bioavailability [40]: 55.3%; Activity [41]: Active; Activity [42]: Active; Activity [43]: Active
